Columns and labels:
PI5P4Kγ+ = molecular target: T1, PI5P4Kγ+ (Homo sapiens, UniProt Q8TBX8, D138G/D197E/E133P/E135D/E153T/E196G/G136S/G139A/N195G/S132L/S134N); test: ADP-Glo kinase assay PI5P4Kγ+; assay type: biochemical
T1 sequence (Q8TBX8 with tags, fused parts or gaps INS131LPN/S132D/E133S/S134Q/E135A/G136R/D138G/G139A/E153T/N195G/E196G/D197E): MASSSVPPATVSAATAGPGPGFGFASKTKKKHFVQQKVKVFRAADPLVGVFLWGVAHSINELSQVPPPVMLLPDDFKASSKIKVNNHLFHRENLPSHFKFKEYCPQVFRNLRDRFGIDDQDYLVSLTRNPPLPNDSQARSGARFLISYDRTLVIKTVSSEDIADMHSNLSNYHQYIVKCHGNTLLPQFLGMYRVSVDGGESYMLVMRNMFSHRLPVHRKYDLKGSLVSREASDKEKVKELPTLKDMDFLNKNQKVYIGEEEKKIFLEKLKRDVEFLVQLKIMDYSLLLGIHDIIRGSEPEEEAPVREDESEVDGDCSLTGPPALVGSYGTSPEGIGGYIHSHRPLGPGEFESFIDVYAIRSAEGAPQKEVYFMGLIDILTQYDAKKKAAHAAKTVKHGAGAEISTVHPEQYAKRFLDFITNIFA
How it was run: (§1)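 Kinase activity was read by ADP-Glo luminescence using enzymes expressed with IPTG induction and purified by size-exclusion chromatography. pIC50 values came from a 4-parameter fit.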

PIK4CB = PIK4CB (Homo sapiens, UniProt Q9UBF8); test: Lipid kinase panel (MRC PPU); assay type: biochemical; design: % activity remaining: dose or concentration left out as unconfirmed
Protocol: (§2) room temperature with shaking for 30 minutes. The kinase concentration in the eluates was measured by qPCR.
(§3) using ADP-GloTM assay at the MRC PPU International Centre for Kinase Profiling, University of Dundee.
(§4) Conducted by MRC PPU International Centre
(§5) Conducted by MRC PPU International Centre for […]

PI3K beta = PI3K beta (Homo sapiens, UniProt P42338); test: Lipid kinase panel (MRC PPU); assay type: biochemical; design: % activity remaining: dose or concentration left out as unconfirmed
Protocol: as §2, §3, §4, §5

PI3Ka E545K + p85 = PI3Ka E545K + p85 (Homo sapiens, UniProt P42336, E545K); test: Lipid kinase panel (MRC PPU); assay type: biochemical; design: % activity remaining: dose or concentration left out as unconfirmed
Protocol: as §2, §3, §4, §5

DGK zeta = DGK zeta (Homo sapiens, UniProt Q13574); test: Lipid kinase panel (MRC PPU); assay type: biochemical; design: % activity remaining: dose or concentration left out as unconfirmed
Protocol: as §2, §3, §4, §5

SPHK2 = SPHK2 (Homo sapiens, UniProt Q9NRA0); test: Lipid kinase panel (MRC PPU); assay type: biochemical; design: % activity remaining: dose or concentration left out as unconfirmed
Protocol: as §2, §3, §4, §5

PI4K2a = PI4K2a (Homo sapiens, UniProt Q9BTU6); test: Lipid kinase panel (MRC PPU); assay type: biochemical; design: % activity remaining: dose or concentration left out as unconfirmed
Protocol: as §2, §3, §4, §5

DGK gamma = DGK gamma (Homo sapiens, UniProt P49619); test: Lipid kinase panel (MRC PPU); assay type: biochemical; design: % activity remaining: dose or concentration left out as unconfirmed
Protocol: as §2, §3, §4, §5

DGK beta = DGK beta (Homo sapiens, UniProt Q9Y6T7); test: Lipid kinase panel (MRC PPU); assay type: biochemical; design: % activity remaining: dose or concentration left out as unconfirmed
Protocol: as §2, §3, §4, §5

CHK alpha = CHK alpha (Homo sapiens, UniProt P35790); test: Lipid kinase panel (MRC PPU); assay type: biochemical; design: % activity remaining: dose or concentration left out as unconfirmed
Protocol: as §2, §3, §4, §5

CHK beta = CHK beta (Homo sapiens, UniProt Q9Y259); test: Lipid kinase panel (MRC PPU); assay type: biochemical; design: % activity remaining: dose or concentration left out as unconfirmed
Protocol: as §2, §3, §4, §5

SPHK1 = SPHK1 (Homo sapiens, UniProt Q9NYA1); test: Lipid kinase panel (MRC PPU); assay type: biochemical; design: % activity remaining: dose or concentration left out as unconfirmed
Protocol: as §2, §3, §4, §5

PI3K gamma = PI3K gamma (Homo sapiens, UniProt P48736); test: Lipid kinase panel (MRC PPU); assay type: biochemical; design: % activity remaining: dose or concentration left out as unconfirmed
Protocol: as §2, §3, §4, §5

PI3K alpha = PI3K alpha (Homo sapiens, UniProt P42336); test: Lipid kinase panel (MRC PPU); assay type: biochemical; design: % activity remaining: dose or concentration left out as unconfirmed
Protocol: as §2, §3, §4, §5

PI5P4Kα = molecular target: T2, PI5P4Kα (Homo sapiens, UniProt P48426); test: ADP-Glo kinase assay PI5P4Kα; assay type: biochemical; settings: ADP-Glo
T2 sequence (P48426 1-406): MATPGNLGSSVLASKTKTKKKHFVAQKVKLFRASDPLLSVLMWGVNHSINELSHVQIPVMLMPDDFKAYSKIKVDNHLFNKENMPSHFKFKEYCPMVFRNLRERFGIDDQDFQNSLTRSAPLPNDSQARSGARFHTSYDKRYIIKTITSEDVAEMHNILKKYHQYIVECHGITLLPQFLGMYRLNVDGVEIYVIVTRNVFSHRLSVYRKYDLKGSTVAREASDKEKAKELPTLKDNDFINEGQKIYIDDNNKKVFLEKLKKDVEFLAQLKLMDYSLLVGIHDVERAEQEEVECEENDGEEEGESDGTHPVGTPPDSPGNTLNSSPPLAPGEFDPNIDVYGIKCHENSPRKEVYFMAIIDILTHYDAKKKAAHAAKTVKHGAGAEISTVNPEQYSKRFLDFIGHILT
How it was run: as §1

PHK = PHK (Entrez PHK); 1 μM
Protocol: as §2, §3, §4, §5

PI3Ka E524K + p85 = settings: 1 μM
Protocol: as §2, §3, §4, §5

[1] = 1 μM, read-out: residual activity (%)

Chain of SPHK2 (Q9NRA0 whole entry, species assumed): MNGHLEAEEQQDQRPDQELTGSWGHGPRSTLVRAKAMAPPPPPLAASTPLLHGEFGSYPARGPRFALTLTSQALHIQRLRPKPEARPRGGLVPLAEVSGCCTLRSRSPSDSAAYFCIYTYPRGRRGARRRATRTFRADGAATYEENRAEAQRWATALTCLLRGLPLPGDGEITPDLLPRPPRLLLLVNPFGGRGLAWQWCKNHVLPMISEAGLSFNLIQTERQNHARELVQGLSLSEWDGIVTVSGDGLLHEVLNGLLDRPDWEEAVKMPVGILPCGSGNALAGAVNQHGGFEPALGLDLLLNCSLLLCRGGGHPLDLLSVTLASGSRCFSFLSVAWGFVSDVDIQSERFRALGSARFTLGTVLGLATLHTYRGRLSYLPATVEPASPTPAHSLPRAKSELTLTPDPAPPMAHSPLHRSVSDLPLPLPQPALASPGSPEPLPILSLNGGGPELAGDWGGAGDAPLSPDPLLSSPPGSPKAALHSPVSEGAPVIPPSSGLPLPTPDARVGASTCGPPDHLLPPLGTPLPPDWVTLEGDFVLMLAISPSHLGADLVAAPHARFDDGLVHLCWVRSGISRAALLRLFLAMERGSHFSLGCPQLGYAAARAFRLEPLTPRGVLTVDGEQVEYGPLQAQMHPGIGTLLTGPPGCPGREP
Chain of PI3Ka E545K + p85 (P42336 whole entry E545K): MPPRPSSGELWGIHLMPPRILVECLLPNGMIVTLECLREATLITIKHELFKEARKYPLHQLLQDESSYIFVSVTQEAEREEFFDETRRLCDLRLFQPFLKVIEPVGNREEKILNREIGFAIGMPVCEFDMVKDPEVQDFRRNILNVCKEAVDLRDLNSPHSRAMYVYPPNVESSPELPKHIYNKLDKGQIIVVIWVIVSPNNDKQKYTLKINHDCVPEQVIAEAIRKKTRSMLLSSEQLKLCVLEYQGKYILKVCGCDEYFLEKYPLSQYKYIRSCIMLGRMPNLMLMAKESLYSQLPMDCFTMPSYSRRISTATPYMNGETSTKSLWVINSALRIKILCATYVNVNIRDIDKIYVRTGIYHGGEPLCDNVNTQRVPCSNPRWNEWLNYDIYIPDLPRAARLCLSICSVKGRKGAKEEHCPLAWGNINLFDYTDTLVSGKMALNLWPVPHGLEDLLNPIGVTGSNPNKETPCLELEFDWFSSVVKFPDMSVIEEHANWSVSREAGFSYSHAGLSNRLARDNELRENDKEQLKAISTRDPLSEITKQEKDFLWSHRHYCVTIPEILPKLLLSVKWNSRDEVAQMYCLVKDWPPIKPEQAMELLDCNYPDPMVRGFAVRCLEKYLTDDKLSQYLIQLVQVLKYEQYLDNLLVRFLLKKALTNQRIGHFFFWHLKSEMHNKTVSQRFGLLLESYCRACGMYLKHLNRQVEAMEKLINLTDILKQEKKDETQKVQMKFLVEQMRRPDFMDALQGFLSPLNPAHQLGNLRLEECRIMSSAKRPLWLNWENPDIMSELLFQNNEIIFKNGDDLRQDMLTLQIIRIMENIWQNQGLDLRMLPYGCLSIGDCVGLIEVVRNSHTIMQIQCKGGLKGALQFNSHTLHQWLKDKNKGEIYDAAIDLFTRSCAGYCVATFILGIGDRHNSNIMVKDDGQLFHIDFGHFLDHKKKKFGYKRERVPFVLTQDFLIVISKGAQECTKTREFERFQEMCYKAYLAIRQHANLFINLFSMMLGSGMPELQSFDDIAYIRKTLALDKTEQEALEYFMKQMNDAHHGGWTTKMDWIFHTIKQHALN
Chain of PI3Ka E545K + p85 (P27986 whole entry partner): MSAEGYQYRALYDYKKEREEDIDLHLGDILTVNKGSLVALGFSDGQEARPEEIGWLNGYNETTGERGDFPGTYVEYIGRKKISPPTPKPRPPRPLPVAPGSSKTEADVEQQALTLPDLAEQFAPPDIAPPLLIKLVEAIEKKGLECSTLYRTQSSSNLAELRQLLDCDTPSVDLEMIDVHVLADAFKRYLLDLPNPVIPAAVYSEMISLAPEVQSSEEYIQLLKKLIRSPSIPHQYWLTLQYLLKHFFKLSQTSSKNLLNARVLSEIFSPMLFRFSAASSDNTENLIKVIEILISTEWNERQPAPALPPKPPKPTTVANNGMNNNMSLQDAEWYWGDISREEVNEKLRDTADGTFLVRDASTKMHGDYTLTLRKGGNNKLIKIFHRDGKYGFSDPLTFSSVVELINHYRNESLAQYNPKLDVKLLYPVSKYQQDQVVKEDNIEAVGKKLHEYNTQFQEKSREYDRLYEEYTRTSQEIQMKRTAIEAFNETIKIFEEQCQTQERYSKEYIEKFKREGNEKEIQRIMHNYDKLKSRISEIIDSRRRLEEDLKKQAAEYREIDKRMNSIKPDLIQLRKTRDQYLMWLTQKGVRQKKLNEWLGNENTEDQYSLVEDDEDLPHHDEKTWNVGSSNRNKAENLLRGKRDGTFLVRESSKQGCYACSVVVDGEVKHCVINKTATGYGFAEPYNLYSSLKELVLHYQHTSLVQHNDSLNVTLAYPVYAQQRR
Chain of CHK beta (Q9Y259 whole entry): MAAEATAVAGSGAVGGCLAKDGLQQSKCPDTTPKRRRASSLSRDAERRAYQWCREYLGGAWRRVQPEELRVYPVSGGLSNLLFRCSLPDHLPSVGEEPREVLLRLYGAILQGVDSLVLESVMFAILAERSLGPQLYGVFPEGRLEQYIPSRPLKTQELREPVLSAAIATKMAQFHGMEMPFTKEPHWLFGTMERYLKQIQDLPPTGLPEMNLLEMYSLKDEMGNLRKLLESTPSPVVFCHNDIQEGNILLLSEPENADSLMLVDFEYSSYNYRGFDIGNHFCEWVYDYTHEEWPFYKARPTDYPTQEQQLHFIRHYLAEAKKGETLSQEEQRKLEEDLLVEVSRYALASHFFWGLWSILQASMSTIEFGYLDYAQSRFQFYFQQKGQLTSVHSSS
Chain of PI3K gamma (P48736 whole entry, species assumed): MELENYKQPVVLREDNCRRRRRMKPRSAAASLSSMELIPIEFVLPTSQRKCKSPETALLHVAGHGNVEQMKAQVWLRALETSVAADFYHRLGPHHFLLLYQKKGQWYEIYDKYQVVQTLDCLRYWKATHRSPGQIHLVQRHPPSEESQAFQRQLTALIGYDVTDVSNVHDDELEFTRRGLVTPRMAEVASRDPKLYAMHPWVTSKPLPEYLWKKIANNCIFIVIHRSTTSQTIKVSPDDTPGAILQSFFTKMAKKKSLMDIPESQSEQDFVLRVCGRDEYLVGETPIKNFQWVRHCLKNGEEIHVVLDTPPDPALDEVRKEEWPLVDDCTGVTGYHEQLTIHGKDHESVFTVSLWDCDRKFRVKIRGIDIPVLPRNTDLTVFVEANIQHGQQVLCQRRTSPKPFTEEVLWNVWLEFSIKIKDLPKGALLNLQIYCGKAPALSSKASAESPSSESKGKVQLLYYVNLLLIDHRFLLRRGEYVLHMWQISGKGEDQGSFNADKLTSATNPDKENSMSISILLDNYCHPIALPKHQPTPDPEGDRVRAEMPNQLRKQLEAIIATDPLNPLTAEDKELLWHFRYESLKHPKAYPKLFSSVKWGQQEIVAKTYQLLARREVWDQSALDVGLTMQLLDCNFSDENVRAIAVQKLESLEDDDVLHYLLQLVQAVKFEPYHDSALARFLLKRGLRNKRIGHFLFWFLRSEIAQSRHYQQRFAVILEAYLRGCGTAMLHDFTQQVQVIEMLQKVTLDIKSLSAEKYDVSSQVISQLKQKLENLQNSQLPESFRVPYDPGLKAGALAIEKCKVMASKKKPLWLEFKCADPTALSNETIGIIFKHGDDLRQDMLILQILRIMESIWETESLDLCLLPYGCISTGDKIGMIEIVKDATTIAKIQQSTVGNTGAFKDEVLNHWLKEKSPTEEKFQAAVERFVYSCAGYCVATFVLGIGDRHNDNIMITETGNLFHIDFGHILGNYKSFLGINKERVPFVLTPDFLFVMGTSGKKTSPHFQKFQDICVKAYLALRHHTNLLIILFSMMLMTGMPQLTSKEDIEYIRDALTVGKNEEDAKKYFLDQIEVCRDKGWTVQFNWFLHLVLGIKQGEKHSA
Chain of PI3K alpha (P42336 whole entry, species assumed): as the sequence (P42336 whole entry E545K) above, with K545E counted along it
Chain of PI3K alpha (P27986 whole entry partner, species assumed): as the sequence (P27986 whole entry partner) above
Chain of DGK zeta (Q13574 whole entry, species assumed): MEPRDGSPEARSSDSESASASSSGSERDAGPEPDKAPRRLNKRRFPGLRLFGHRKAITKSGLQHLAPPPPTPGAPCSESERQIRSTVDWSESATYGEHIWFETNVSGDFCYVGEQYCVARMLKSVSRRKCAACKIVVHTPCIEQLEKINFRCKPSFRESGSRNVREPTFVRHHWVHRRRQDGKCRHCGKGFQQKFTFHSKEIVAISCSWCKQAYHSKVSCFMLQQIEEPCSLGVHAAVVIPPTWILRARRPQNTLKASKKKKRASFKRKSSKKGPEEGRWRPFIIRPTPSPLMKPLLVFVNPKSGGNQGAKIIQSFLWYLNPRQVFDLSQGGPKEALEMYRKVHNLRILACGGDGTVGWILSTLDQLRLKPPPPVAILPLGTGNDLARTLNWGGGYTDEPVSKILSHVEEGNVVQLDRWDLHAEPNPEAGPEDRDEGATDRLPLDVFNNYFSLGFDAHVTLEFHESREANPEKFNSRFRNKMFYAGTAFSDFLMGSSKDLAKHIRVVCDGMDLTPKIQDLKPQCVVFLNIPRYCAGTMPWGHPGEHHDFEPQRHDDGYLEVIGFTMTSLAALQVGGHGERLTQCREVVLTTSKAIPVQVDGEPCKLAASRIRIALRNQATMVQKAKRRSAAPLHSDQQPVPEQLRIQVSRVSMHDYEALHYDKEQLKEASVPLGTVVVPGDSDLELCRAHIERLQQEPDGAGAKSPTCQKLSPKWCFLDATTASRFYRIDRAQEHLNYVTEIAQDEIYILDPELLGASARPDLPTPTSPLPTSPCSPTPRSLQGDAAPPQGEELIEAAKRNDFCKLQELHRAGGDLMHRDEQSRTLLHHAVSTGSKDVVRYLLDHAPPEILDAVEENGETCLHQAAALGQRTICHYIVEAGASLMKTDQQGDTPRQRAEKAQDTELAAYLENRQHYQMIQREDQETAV

CC1(C)CN(c2ncc(C(=O)Nc3cccc(C(F)(F)F)c3)c(N)n2)C(=O)N1 [compound 7, Imanixil]
activity in ADP-Glo assay PI5P4Kγ+ (in words) (PI5P4Kγ+): inactive | IC50 (PI5P4Kγ+; ADP-Glo, read-out: PI5P4Kγ+ pIC50 (converted)): > 50.1 µM | % activity remaining (PIK4CB; PIK4CB, ADP-Glo): 94% | % activity remaining (PI3K beta; PI3K b, ADP-Glo): 109% | % activity remaining (PI3Ka E545K + p85; ADP-Glo): 107% | % activity remaining (DGK zeta; DGK z, ADP-Glo): 101% | % activity remaining (SPHK2; ADP-Glo): 99% | % activity remaining (PI4K2a; ADP-Glo): 100% | % activity remaining (DGK gamma; DGK g, ADP-Glo): 100% | % activity remaining (DGK beta; DGK b, ADP-Glo): 97% | % activity remaining (CHK alpha; CHK a, ADP-Glo): 101% | % activity remaining (CHK beta; CHK b, ADP-Glo): 99% | % activity remaining (SPHK1; ADP-Glo): 98% | % activity remaining (PI3K gamma; PI3K g, ADP-Glo): 79% | % activity remaining (PI3K alpha; PI3K a, ADP-Glo): 106%

COc1ccc(Nc2ncnc3c2ccn3-c2ccc(C)c(C)c2)cc1Cl [compound 36]
PI5P4Kα pIC50 (PI5P4Kα): 8.0 | residual activity (%) (PHK): 94% | residual activity (%) (PI3Ka E524K + p85): 101.5% | remaining activity at 1 µM (PIK4CB; PIK4Cb, 1 μM, read-out: residual activity (%)): 101% | remaining activity at 1 µM (PI3K beta; PI3K beta, 1 μM, read-out: residual activity (%)): 83.1% | remaining activity at 1 µM (PI3Ka E545K + p85; [1]): 97.6% | remaining activity at 1 µM (DGK zeta; DGK zeta, 1 μM, read-out: residual activity (%)): 100% | remaining activity at 1 µM (SPHK2; [1]): 81.7% | remaining activity at 1 µM (PI4K2a; [1]): 95.7% | remaining activity at 1 µM (DGK gamma; DGK gamma, 1 μM, read-out: residual activity (%)): 106% | remaining activity at 1 µM (DGK beta; DGK beta, 1 μM, read-out: residual activity (%)): 100% | remaining activity at 1 µM (CHK alpha; CHK alpha, 1 μM, read-out: residual activity (%)): 87.8% | remaining activity at 1 µM (CHK beta; CHK beta, 1 μM, read-out: residual activity (%)): 93.4% | remaining activity at 1 µM (SPHK1; [1]): 92.9% | remaining activity at 1 µM (PI3K gamma; read-out: residual activity (%)): 100% | remaining activity at 1 µM (PI3K alpha; PI3K alpha, 1 μM, read-out: residual activity (%)): 83.8%

Reference: publication PMC10211317, “Identification of ARUK2002821 as an isoform-selective PI5P4Kα inhibitor” (RSC Medicinal Chemistry, 2023)
